Laboratory results as given in patent US12129246B1, “Hydroquinazoline derivatives for the treatment of a disease or disorder” (Novartis AG, priority 2023, dated 2024).
Read-outs that look alike come from different tables or passages of the source.

How the values were obtained:
human NPR1 = target: T1, human NPR1 (Homo sapiens, UniProt P16066); assay: Cellular cGMP production assay, human NPR1 expressing CHO-K1 cells (CisBio HTRF); assay type: cell-based; conditions: for AC50: cGMP production, 30 min at 37° C., 12-point dose-response from 30 μM; for Human NPR1 Amax (% of ANP): maximum cGMP production as percentage of the maximum cGMP produced with ANP
T1 construct: host or cells: CHO-K1
T1 sequence (P16066 33-1061): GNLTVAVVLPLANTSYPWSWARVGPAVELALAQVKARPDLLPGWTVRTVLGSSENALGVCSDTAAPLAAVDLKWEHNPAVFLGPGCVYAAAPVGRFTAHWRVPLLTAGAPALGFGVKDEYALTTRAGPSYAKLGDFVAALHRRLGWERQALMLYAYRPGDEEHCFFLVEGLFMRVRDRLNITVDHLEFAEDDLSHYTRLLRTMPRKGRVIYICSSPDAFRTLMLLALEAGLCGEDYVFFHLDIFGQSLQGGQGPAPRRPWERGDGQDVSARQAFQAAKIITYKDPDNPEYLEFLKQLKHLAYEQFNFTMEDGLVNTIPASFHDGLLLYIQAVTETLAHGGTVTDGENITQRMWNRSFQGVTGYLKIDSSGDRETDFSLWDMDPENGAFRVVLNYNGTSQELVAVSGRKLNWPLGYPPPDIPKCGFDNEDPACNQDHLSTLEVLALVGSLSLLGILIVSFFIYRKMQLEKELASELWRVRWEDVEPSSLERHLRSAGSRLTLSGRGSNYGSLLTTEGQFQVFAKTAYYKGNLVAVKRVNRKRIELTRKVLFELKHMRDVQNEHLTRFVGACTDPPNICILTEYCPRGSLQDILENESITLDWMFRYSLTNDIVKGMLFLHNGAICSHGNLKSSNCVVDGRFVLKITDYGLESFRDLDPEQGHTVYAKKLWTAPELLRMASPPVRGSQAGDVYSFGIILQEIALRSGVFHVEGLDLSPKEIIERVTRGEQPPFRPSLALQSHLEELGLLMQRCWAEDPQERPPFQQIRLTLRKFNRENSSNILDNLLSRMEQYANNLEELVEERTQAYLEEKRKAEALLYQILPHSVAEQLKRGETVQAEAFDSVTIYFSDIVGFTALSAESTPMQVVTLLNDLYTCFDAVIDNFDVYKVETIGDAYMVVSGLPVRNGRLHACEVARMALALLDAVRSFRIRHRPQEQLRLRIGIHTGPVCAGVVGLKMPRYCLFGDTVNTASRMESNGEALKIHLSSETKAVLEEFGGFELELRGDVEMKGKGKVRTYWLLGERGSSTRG
Outline: (§1)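 CHO-K1 cells expressing human or cynomolgus NPR1 treated with compound (12-point, 3-fold dilutions from 30 μM top) in PBS+0.1% BSA with 1 mM IBMX, 30 min at 37° C. After lysis, cGMP quantified by HTRF competition (cGMP-d2/anti-cGMP-cryptate, 1 h RT, 665 nm emission) against a calibrator standard curve.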

monkey NPR1 = monkey NPR1 (Macaca fascicularis, UniProt A0A7N9DBT9); assay: Cellular cGMP production assay, monkey NPR1 expressing CHO-K1 cells (CisBio HTRF); assay type: cell-based; conditions: for Monkey NPR1 Amax (% of ANP): maximum cGMP production as percentage of the maximum cGMP produced with ANP
Chain of monkey NPR1 (A0A7N9DBT9 entry or part of it): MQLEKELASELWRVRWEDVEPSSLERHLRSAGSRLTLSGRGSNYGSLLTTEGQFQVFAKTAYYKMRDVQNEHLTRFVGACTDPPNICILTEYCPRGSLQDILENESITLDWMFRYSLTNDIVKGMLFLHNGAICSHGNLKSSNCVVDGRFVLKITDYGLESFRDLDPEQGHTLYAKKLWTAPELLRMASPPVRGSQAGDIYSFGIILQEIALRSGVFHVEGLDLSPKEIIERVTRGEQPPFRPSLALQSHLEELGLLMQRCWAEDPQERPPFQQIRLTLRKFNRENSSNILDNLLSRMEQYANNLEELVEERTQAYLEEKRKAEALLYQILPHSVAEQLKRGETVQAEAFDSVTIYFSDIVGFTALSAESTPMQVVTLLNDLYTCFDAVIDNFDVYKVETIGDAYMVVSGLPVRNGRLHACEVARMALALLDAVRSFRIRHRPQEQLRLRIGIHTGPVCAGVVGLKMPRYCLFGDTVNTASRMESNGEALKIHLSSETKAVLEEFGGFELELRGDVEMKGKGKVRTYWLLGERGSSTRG
Outline: as §1

[1] = cGMP production, monkey NPR1 CHO-K1 cells, 30 min at 37° C., 12-point dose-response from 30 μM, read-out: Monkey NPR1 AC50

With `CC[C@H]([C@H]1CC[C@H](CC(=O)O)CC1)N(C)c1nc2c(c(N[C@@H](CN3CCC[C@H](C)C3)c3cnn(C)c3)n1)C[C@H](c1ccccc1)CC2` [Compound 67, 2-((1R,4r)-4-((R)-1-(methyl((R)-4-(((R)-1-(1-methyl-1H-pyrazol-4-yl)-2-((S)-3-methylpiperidin-1-yl)ethyl)amino)-6-phenyl-5,6,7,8-tetrahydroquinazolin-2-yl)amino)propyl)cyclohexyl)acetic acid] the AC50 (human NPR1) was 0.229 µM, the “Human NPR1 Amax (% of ANP)” value (human NPR1) was 95.228 % of ANP and the AC50 (monkey NPR1; [1]) was 0.155 µM. The “Monkey NPR1 Amax (% of ANP)” value (monkey NPR1; monkey NPR1 CHO-K1 cells) was 98.233 % of ANP.

`CC[C@H]([C@H]1CC[C@H](C(=O)O)CC1)N(C)c1nc2c(c(N[C@@H](CN3C4CCCC3COC4)c3cnn(C)c3)n1)C[C@H](c1ccccc1)CC2` [Compound 169, (1R,4r)-4-((R)-1-(((R)-4-(((R)-2-((1R,5S)-3-oxa-9-azabicyclo[3.3.1]nonan-9-yl)-1-(1-methyl-1H-pyrazol-4-yl)ethyl)amino)-6-phenyl-5,6,7,8-tetrahydroquinazolin-2-yl)(methyl)amino)propyl)cyclohexane-1-carboxylic acid] was tested, and the AC50 (human NPR1) was 2.67 µM, the “Human NPR1 Amax (% of ANP)” value (human NPR1) was 67.375 % of ANP and the AC50 (monkey NPR1) was 1.92 µM. The “Monkey NPR1 Amax (% of ANP)” value (monkey NPR1; monkey NPR1 CHO-K1 cells) was 96.574 % of ANP.

For `CC[C@@H](Nc1nc2c(c(N[C@@H](CN(C)C)c3ccccc3)n1)C[C@H](c1ccccc1)CC2)[C@H]1CC[C@H](C(=O)O)CC1` [Compound 165, (1R,4r)-4-((R)-1-(((R)-4-(((R)-2-(dimethylamino)-1-phenylethyl)amino)-6-phenyl-5,6,7,8-tetrahydroquinazolin-2-yl)amino)propyl)cyclohexane-1-carboxylic acid], the AC50 (human NPR1) was 1.81 µM, the “Human NPR1 Amax (% of ANP)” value (human NPR1) was 90.595 % of ANP and the AC50 (monkey NPR1; [1]) was 1.08 µM. For the same compound, the “Monkey NPR1 Amax (% of ANP)” value (monkey NPR1; monkey NPR1 CHO-K1 cells) was 87.861 % of ANP.

In the case of `CC[C@H]([C@H]1CC[C@H](C(=O)O)CC1)N(C)c1nc2c(c(N[C@H](c3cnn(C)c3)C(C)(C)N3CCCCC3)n1)C[C@H](c1ccccc1)CC2` [Compound 173, (1R,4r)-4-((R)-1-(methyl((R)-4-(((R)-2-methyl-1-(1-methyl-1H-pyrazol-4-yl)-2-(piperidin-1-yl)propyl)amino)-6-phenyl-5,6,7,8-tetrahydroquinazolin-2-yl)amino)propyl)cyclohexane-1-carboxylic acid], the AC50 (human NPR1) is reported as 4.2 µM, the “Human NPR1 Amax (% of ANP)” value (human NPR1) is reported as 102.335 % of ANP and the AC50 (monkey NPR1; [1]) is reported as 2.58 µM. The “Monkey NPR1 Amax (% of ANP)” value (monkey NPR1; monkey NPR1 CHO-K1 cells) was 102.204 % of ANP.
